Reference: ChEMBL document CHEMBL2021782, “Drug-to-genome-to-drug, step 2: reversing selectivity in a series of antiplasmodial compounds” (J Med Chem, 2012)

Tests used:
[1] = Cytotoxicity against human MRC5 SV2 cells after 72 hrs using resazurin by fluorimetry; type: cell-based
[2] = test system: Plasmodium falciparum; assay: Antiplasmodial activity against chloroquine-sensitive Plasmodium falciparum GHA infected in human erythrocytes after 72 hrs using malstat staining by spectrophotometry; type: functional, organism-based
[3] = Selectivity ratio of CC50 for human MRC5 SV2 cells to IC50 for chloroquine-sensitive Plasmodium falciparum GHA strain; type: ADME, cell-based; conditions: read-out: Ratio CC50/IC50
[4] = target: cGMP-specific 3',5'-cyclic phosphodiesterase (Bos taurus, UniProt Q28156); assay: Inhibition of bovine PDE5 after 24 hrs by time-resolved fluorescence resonance energy transfer assay
[5] = test system: Plasmodium falciparum; assay: Antiplasmodial activity against chloroquine-sensitive Plasmodium falciparum K1 infected in human erythrocytes after 72 hrs using malstat staining by spectrophotometry; type: functional, organism-based; conditions: K1, 72 h
[6] = Selectivity index, ratio of IC50 for chloroquine-sensitive Plasmodium falciparum K1 to IC50 for bovine PDE5
[7] = Selectivity index, ratio of IC50 for chloroquine-sensitive Plasmodium falciparum GHA to IC50 for bovine PDE5
[8] = target: cAMP and cAMP-inhibited cGMP 3',5'-cyclic phosphodiesterase 10A (Homo sapiens) (UniProt Q9Y233); assay: Inhibition of human recombinant PDE10A1 expressed in Sf9 cells at 10 uM after 30 mins by HTRF assay
Chain of cAMP and cAMP-inhibited cGMP 3',5'-cyclic phosphodiesterase 10A (Homo sapiens) (Q9Y233 whole entry): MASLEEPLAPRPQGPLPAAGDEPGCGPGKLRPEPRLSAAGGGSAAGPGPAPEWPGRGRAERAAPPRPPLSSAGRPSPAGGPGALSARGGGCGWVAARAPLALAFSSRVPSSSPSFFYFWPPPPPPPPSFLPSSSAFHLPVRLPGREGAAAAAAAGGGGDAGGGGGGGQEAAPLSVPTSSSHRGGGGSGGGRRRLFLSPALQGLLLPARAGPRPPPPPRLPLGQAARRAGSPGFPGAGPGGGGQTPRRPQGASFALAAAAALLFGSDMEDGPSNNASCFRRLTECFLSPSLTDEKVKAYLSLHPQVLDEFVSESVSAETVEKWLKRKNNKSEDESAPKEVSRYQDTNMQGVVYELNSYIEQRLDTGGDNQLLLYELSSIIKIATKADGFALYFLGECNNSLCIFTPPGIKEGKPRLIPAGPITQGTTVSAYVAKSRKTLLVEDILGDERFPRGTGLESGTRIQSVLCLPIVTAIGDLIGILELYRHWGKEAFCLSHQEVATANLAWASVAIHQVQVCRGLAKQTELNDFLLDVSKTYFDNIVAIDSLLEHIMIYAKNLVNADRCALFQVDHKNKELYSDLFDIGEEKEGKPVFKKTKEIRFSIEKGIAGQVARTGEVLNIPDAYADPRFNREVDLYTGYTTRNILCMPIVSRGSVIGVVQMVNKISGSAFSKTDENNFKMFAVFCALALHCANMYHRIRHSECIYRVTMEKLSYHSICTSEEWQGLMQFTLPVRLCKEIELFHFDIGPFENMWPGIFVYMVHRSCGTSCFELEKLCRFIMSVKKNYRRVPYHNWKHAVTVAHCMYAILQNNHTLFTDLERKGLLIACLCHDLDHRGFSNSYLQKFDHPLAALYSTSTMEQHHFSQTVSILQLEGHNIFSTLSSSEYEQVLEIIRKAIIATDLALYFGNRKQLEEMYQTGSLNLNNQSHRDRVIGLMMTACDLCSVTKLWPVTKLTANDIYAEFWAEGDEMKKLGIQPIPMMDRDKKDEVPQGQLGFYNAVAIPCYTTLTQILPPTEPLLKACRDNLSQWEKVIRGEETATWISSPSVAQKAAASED

[9] = target: cGMP-dependent 3',5'-cyclic phosphodiesterase (Homo sapiens) (UniProt O00408); assay: Inhibition of human recombinant PDE2A expressed in Sf9 cells at 10 uM after 30 mins by HTRF assay
Chain of cGMP-dependent 3',5'-cyclic phosphodiesterase (Homo sapiens) (O00408 whole entry): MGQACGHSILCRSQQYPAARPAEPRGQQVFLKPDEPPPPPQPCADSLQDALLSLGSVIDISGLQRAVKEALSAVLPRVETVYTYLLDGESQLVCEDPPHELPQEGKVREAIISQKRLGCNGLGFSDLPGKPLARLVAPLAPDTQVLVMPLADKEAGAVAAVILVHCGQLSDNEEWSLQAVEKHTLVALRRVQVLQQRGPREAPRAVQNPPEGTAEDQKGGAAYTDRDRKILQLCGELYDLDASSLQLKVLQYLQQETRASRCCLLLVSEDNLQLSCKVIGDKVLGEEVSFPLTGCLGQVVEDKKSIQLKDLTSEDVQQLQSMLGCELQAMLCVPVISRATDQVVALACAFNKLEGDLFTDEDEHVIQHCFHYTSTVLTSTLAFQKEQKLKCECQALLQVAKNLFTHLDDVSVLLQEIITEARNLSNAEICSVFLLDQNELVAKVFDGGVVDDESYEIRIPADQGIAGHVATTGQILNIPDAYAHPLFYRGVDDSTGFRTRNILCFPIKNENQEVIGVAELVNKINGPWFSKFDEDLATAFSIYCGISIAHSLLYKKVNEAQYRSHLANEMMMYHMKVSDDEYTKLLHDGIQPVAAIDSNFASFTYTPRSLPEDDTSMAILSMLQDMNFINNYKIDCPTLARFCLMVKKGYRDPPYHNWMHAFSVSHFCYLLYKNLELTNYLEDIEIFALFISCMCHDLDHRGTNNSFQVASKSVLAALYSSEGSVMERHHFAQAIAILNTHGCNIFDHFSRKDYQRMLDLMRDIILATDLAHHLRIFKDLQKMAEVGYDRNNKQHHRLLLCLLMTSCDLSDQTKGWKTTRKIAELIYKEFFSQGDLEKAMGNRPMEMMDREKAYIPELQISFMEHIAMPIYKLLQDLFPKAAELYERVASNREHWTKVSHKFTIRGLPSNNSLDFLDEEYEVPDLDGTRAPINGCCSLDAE

[10] = species on record: Bos taurus; assay: Inhibition of bovine PDE6 using [3H]5GMP at 10 uM after 60 mins by scintillation counting
[11] = target: Dual 3',5'-cyclic-AMP and -GMP phosphodiesterase 11A (Homo sapiens) (UniProt Q9HCR9); assay: Inhibition of human recombinant PDE11A4 expressed in Sf9 cells at 10 uM after 30 mins by HTRF assay
Chain of Dual 3',5'-cyclic-AMP and -GMP phosphodiesterase 11A (Homo sapiens) (Q9HCR9 whole entry, looked up): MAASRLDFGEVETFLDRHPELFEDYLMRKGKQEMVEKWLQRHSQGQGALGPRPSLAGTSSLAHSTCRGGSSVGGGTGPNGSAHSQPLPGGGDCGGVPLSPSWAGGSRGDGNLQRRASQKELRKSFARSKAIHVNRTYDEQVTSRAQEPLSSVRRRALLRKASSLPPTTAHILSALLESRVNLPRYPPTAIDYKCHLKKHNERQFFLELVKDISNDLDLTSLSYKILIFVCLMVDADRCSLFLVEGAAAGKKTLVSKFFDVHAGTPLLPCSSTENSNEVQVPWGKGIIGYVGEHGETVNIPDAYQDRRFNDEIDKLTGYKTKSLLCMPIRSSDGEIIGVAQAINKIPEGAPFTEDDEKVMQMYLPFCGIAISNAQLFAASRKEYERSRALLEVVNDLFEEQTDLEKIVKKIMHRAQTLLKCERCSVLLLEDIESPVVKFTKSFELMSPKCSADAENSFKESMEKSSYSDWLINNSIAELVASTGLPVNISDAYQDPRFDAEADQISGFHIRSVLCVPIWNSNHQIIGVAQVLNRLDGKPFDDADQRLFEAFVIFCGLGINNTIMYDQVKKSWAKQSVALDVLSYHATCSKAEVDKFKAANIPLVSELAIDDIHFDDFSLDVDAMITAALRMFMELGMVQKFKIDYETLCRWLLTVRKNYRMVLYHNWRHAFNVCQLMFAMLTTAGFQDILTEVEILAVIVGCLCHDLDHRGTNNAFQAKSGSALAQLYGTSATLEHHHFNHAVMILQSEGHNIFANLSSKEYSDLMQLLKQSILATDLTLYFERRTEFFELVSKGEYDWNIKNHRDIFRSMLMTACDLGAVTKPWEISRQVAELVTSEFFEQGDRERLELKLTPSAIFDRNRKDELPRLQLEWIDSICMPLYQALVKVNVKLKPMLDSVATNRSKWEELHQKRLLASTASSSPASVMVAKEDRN

[12] = target: cGMP-specific 3',5'-cyclic phosphodiesterase (Homo sapiens) (UniProt O76074); conditions: 10 uM
Description: Inhibition of human PDE5 using [3H]5GMP at 10 uM after 60 mins by scintillation counting

[13] = target: Dual specificity calcium/calmodulin-dependent 3',5'-cyclic nucleotide phosphodiesterase 1B (Homo sapiens) (UniProt Q01064); assay: Inhibition of human recombinant PDE1B expressed in Sf9 cells at 10 uM after 30 mins by HTRF assay
Chain of Dual specificity calcium/calmodulin-dependent 3',5'-cyclic nucleotide phosphodiesterase 1B (Homo sapiens) (Q01064 whole entry): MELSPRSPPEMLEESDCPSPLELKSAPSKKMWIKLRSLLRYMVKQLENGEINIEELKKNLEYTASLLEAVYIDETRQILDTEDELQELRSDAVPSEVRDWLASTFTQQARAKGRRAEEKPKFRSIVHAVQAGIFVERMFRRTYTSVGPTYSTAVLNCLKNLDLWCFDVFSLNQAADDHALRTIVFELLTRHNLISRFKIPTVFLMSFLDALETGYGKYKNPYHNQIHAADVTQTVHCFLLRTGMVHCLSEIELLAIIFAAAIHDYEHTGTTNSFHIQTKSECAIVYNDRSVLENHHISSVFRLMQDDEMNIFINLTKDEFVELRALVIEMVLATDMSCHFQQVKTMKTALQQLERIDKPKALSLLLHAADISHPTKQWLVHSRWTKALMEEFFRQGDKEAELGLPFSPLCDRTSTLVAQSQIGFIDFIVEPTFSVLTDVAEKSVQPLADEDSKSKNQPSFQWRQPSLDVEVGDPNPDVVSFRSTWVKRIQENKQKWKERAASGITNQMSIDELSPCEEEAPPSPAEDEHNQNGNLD

[14] = target: High affinity 3',5'-cyclic-AMP phosphodiesterase 7A (Homo sapiens) (UniProt Q13946); assay: Inhibition of human recombinant PDE7A expressed in Sf9 cells at 10 uM after 30 mins by HTRF assay
Chain of High affinity 3',5'-cyclic-AMP phosphodiesterase 7A (Homo sapiens) (Q13946 whole entry): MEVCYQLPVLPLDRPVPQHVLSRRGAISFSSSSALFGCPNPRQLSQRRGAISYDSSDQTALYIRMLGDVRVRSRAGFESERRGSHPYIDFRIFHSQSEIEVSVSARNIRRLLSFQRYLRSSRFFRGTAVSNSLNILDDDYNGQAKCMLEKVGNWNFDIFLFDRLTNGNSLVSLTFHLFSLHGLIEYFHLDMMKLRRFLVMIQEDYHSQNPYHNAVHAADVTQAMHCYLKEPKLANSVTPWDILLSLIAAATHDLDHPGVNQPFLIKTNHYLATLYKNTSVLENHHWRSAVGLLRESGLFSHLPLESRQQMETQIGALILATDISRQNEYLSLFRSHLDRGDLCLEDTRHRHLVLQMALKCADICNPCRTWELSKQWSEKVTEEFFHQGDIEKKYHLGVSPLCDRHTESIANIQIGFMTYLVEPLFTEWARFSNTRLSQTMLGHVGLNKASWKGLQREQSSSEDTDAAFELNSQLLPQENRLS

[15] = target: Phosphodiesterase 4 (Homo sapiens) (UniProt P27815+Q08499+Q07343+Q08493); assay: Inhibition of human recombinant PDE4A1A expressed in Sf9 cells at 10 uM after 30 mins by HTRF assay
[16] = target: cGMP-inhibited 3',5'-cyclic phosphodiesterase 3A (Homo sapiens) (UniProt Q14432); assay: Inhibition of human recombinant PDE3A expressed in Sf9 cells at 10 uM after 30 mins by HTRF assay
[17] = target: High affinity cAMP-specific and IBMX-insensitive 3',5'-cyclic phosphodiesterase 8A (Homo sapiens) (UniProt O60658); assay: Inhibition of human recombinant PDE8A1 expressed in Sf9 cells at 10 uM after 30 mins by HTRF assay
Chain of High affinity cAMP-specific and IBMX-insensitive 3',5'-cyclic phosphodiesterase 8A (Homo sapiens) (O60658 whole entry): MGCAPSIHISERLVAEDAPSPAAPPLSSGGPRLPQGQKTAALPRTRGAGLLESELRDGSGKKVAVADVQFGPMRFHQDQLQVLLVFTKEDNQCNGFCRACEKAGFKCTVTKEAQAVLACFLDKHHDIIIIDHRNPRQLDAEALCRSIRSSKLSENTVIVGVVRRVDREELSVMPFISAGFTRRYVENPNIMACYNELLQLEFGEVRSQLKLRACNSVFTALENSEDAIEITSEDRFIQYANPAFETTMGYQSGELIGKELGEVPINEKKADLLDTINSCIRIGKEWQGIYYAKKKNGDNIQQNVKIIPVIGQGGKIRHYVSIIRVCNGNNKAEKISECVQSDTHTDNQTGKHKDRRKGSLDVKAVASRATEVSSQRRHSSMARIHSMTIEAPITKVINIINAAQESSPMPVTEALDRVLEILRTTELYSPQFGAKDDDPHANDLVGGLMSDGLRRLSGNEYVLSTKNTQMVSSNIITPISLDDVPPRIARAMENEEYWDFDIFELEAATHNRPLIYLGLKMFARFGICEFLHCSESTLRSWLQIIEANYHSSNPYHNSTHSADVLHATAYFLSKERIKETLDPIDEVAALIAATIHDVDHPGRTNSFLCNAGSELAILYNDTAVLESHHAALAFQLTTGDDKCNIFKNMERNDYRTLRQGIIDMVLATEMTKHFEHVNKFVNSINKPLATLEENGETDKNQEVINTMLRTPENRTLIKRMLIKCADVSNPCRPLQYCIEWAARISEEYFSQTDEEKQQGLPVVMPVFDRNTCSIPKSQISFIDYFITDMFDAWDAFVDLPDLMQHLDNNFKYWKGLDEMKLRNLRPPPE

Row | IC50 [2] [µM] | IC50 [4] [µM] | Compound | CC50 at 72 h [1] [µM] | selectivity ratio [3] | also measured
1 | – | – | O=C1[C@H]2Cc3c([nH]c4ccccc34)[C@@H](c3ccc4c(c3)OCO4)N2C(=O)CN1C1CCN(Cc2ccccc2)CC1 | 7 | – | –
2 | 10 | – | COc1ccc(CN2CC[C@@H](N3CC(=O)N4[C@H](c5ccc6c(c5)OCO6)c5[nH]c6ccccc6c5C[C@@H]4C3=O)C2)cc1 | < 1 | < 1 | –
3 | 0.61 | 0.056 | COc1ccc([C@@H]2c3[nH]c4ccccc4c3C[C@@H]3C(=O)N([C@@H]4CCN(Cc5ccccc5)C4)CC(=O)N23)cc1O | 22 | 36 | –
4 | 4 | 0.002 | O=C1[C@H]2Cc3c([nH]c4ccccc34)[C@@H](c3ccc4c(c3)OCO4)N2C(=O)CN1[C@@H]1CCN(Cc2ccccn2)C1 | 13 | 13 | –
5 | 12 | – | O=C1[C@H]2Cc3c([nH]c4ccccc34)[C@@H](c3ccc4c(c3)OCO4)N2C(=O)CN1[C@@H]1CCN(CCCCCO)C1 | 3 | 3 | –
6 | 0.52 | > 1 | COc1cc([C@@H]2c3[nH]c4ccccc4c3C[C@@H]3C(=O)N([C@@H]4CCN(Cc5ccccc5)C4)CC(=O)N23)ccc1O | 23 | 44 | –
7 | – | > 10 | COc1ccc([C@@H]2c3[nH]c4ccccc4c3C[C@@H]3C(=O)N([C@@H]4CCN(Cc5ccc6c(c5)OCO6)C4)CC(=O)N23)cc1OC | 25 | 25 | IC50 [5]: 0.95 µM; Ratio IC50 [6]: > 10
8 | 6 | – | O=C1[C@H]2Cc3c([nH]c4ccccc34)[C@@H](c3ccc4nonc4c3)N2C(=O)CN1[C@@H]1CCN(Cc2ccccc2)C1 | > 64 | > 10 | –
9 | 0.8 | 0.001 | Cn1ccnc1CN1CC[C@@H](N2CC(=O)N3[C@H](c4ccc5c(c4)OCO5)c4[nH]c5ccccc5c4C[C@@H]3C2=O)C1 | 50 | 50 | Ratio IC50 [7]: 0.003
10 | > 64 | > 10 | COc1ccc([C@@H]2c3[nH]c4ccccc4c3C[C@@H]3C(=O)N(C)CC(=O)N23)cc1OC | > 64 | > 64 | –
11 | – | > 10 | COc1ccc([C@@H]2c3[nH]c4ccccc4c3C[C@@H]3C(=O)N([C@@H]4CCN(CCNC(=O)OC(C)(C)C)C4)CC(=O)N23)cc1OC | 10 | 10 | IC50 [5]: 0.74 µM; Ratio IC50 [6]: > 13
12 | 0.42 | 5.2 | COc1ccc([C@@H]2c3[nH]c4ccccc4c3C[C@@H]3C(=O)N([C@@H]4CCN(Cc5ccccc5)C4)CC(=O)N23)cc1OC | 32 | 76 | inhibition [8]: 0%; Ratio IC50 [7]: 12.4; inhibition [9]: 0%; inhibition [10]: 18%; inhibition [11]: 30%; inhibition [12]: 48%; inhibition [13]: 0%; inhibition [14]: 0%; inhibition [15]: 1%; inhibition [16]: 1%; inhibition [17]: 3%
13 | 0.53 | 0.007 | O=C1[C@H]2Cc3c([nH]c4ccccc34)[C@@H](c3ccc4c(c3)OCO4)N2C(=O)CN1[C@@H]1CCN(Cc2ccc3c(c2)OCO3)C1 | 78 | 78 | Ratio IC50 [7]: 0.013
14 | 11 | – | O=C1[C@H]2Cc3c([nH]c4ccccc34)[C@@H](c3ccc(Cl)nc3)N2C(=O)CN1[C@@H]1CCN(Cc2ccccc2)C1 | 14 | 1 | –
15 | 11 | – | O=C1[C@H]2Cc3c([nH]c4ccccc34)[C@@H](c3ccc(OC(F)F)cc3)N2C(=O)CN1[C@@H]1CCN(Cc2ccccc2)C1 | > 64 | > 6 | –
16 | 0.22 | 0.001 | CC(C)(C)OC(=O)NCCN1CC[C@@H](N2CC(=O)N3[C@H](c4ccc5c(c4)OCO5)c4[nH]c5ccccc5c4C[C@@H]3C2=O)C1 | 154 | 154 | Ratio IC50 [7]: 0.018
17 | > 64 | – | CN1CC(=O)N2[C@H](c3ccc4c(c3)OCO4)c3[nH]c4ccccc4c3C[C@@H]2C1=O | > 64 | – | –
18 | 0.6 | 0.028 | O=C1[C@H]2Cc3c([nH]c4ccccc34)[C@@H](c3ccc4nsnc4c3)N2C(=O)CN1[C@@H]1CCN(Cc2ccccc2)C1 | 30 | 50 | –
19 | 12 | – | CCCCN1CC[C@@H](N2CC(=O)N3[C@H](c4ccc5c(c4)OCO5)c4[nH]c5ccccc5c4C[C@@H]3C2=O)C1 | < 1 | < 1 | –
20 | – | 0.005 | O=C1[C@H]2Cc3c([nH]c4ccccc34)[C@@H](c3ccc4c(c3)OCO4)N2C(=O)CN1[C@@H]1CCN(Cc2ccccc2)C1 | 10 | 20 | Ratio IC50 [7]: 0.014
21 | 7 | – | CN(C)c1ccc(CN2CC[C@@H](N3CC(=O)N4[C@H](c5ccc6c(c5)OCO6)c5[nH]c6ccccc6c5C[C@@H]4C3=O)C2)cc1 | < 1 | < 1 | –
22 | – | 5.6 | COc1ccc([C@@H]2c3[nH]c4ccccc4c3C[C@@H]3C(=O)N([C@@H]4CCN(Cc5nccn5C)C4)CC(=O)N23)cc1OC | 37 | 37 | IC50 [5]: 1.6 µM; Ratio IC50 [6]: 3
23 | 5 | – | O=C1[C@H]2Cc3c([nH]c4ccccc34)[C@@H](c3ccc4c(c3)OCCO4)N2C(=O)CN1[C@@H]1CCN(Cc2ccccc2)C1 | > 64 | > 13 | –
24 | 7 | – | O=C1[C@H]2Cc3c([nH]c4ccccc34)[C@@H](c3ccc4nnnn4c3)N2C(=O)CN1[C@@H]1CCN(Cc2ccccc2)C1 | 21 | 3 | –
25 | 0.25 | – | O=C1[C@H]2Cc3c([nH]c4ccccc34)[C@@H](c3ccc4c(c3)OCO4)N2C(=O)CN1[C@@H]1CCN(CC2CCCC2)C1 | 22 | 22 | –
26 | 5.3 | – | O=C1[C@H]2Cc3c([nH]c4ccccc34)[C@@H](c3ccc4c(c3)OCO4)N2C(=O)CN1[C@@H]1CCN(CCc2ccccc2)C1 | 1 | 1 | –
27 | 0.7 | – | O=C1[C@H]2Cc3c([nH]c4ccccc34)[C@@H](c3ccc4c(c3)OCO4)N2C(=O)CN1[C@@H]1CCN(CCOc2ccccc2)C1 | 11 | 11 | –
28 | 2 | 0.003 | CN(C)C(=O)CN1CC[C@@H](N2CC(=O)N3[C@H](c4ccc5c(c4)OCO5)c4[nH]c5ccccc5c4C[C@@H]3C2=O)C1 | > 32 | > 32 | –
29 | 11 | – | O=C1[C@H]2Cc3c([nH]c4ccccc34)[C@@H](c3ccc4c(c3)OC(F)(F)O4)N2C(=O)CN1[C@@H]1CCN(Cc2ccccc2)C1 | 8 | 1 | –
30 | 0.9 | – | O=C1[C@H]2Cc3c([nH]c4ccccc34)[C@@H](c3ccc4c(c3)OCO4)N2C(=O)CN1[C@@H]1CCN(CC2CCCCC2)C1 | 7 | 7 | –
